System: rat small-intestinal brush border membrane vesicles
Experiment: Inhibitory effect on 33PO4 uptake into rat small-intestinal brush border membrane vesicles (rapid filtration method)
Assay type: biochemical
Conditions: 33PO4 uptake into rat small-intestinal BBMVs; test compound 1 µM; reacted for 60 seconds
Protocol: Brush border membrane vesicles (BBMVs) were prepared using the upper region of the small intestine of each Wistar female rat (4-5 weeks old). […] The ^33PO4 transport activity of the small-intestinal BBMVs was determined by the rapid filtration method. […] Then, ice-cold buffer C (110 mM NaCl, 1 mM KH2PO4, and 10 mM HEPES (pH 7.5)) was added to each reaction mixture, which was immediately suctionfiltered through a Millipore filter. The filter was washed with buffer C, and each sample was then dissolved in a liquid scintillator. The amount of ^33PO4 uptake into BBMVs was measured using a liquid scintillation counter. […]

Compound | Rate of uptake inhibition (%) (1 µM)
CN(CCOCCC(=O)NCC(O)CO)CCOc1ccc(CN2C(=O)C(C(=O)Nc3ccc(C(F)(F)F)cc3-c3cc(C(F)(F)F)ncn3)=C(O)C3(CCCC3)N2C)c(F)c1F (stereo not drawn) [Example 426] | 24%
C[C@]12CCCN1N(Cc1cccc(F)c1F)C(=O)C(C(=O)Nc1ccc(C(F)(F)F)cc1-c1cnc(C#N)c([N+](=O)[O-])c1)=C2O [Example 99, (4aR)-N-[2-(6-Cyano-5-nitropyridin-3-yl)-4-(trifluoromethyl)phenyl]-1-[(2,3-difluorophenyl)methyl]-4-hydroxy-4a-methyl-2-oxo-6,7-dihydro-5H-pyrrolo[1,2-b]pyridazine-3-carboxamide] | 82%
CN1N(Cc2ccc(OCCCOC[C@H](O)CO)c(F)c2F)C(=O)C(C(=O)Nc2ccc(C(F)(F)F)cc2-c2cc(C(F)(F)F)ncn2)=C(O)C12CCCC2 [Example 392] | 47%
CN1N(Cc2ccc(OCCCCOC[C@H](O)CO)c(F)c2F)C(=O)C(C(=O)Nc2ccc(C(F)(F)F)cc2-c2cc(C(F)(F)F)ncn2)=C(O)C12CCCC2 [Example 393] | 45%
CSc1ccc(-c2cc(C(F)(F)F)ccc2NC(=O)C2=C(O)[C@H](C(C)(C)C)N(C)N(Cc3ccc(OCCN4CCOCC4)c(F)c3F)C2=O)cn1 [Example 268] | 63%
C[C@]12CCCN1N(Cc1cc(F)cc(F)c1)C(=O)C(C(=O)Nc1ccc(C(F)(F)F)cc1-c1cc(C(F)(F)F)ncn1)=C2O [Example 213] | 79%
COCCOc1cc(NC(=O)C2=C(O)C3(CCCC3)N(C)N(Cc3ccc(OCCN(C)CCOC)c(F)c3F)C2=O)c(-c2ncnc(C(F)(F)F)c2C)cc1C(F)(F)F [Example 439, 7-[[2,3-Difluoro-4-[2-[2-methoxyethyl(methyl)amino]ethoxy]phenyl]methyl]-10-hydroxy-N-[5-(2-methoxyethoxy)-2-[5-methyl-6-(trifluoromethyl)pyrimidin-4-yl]-4-(trifluoromethyl)phenyl]-6-methyl-8-oxo-6,7-diazaspiro[4.5]dec-9-ene-9-carboxamide] | 35%
CN1N(Cc2cccc(F)c2F)C(=O)C(C(=O)Nc2ccc(C(F)(F)F)cc2-c2ncnc(C#N)c2Cl)=C(O)C1(C)C [Example 312] | 74%
COc1cccc(-c2cc(C(F)(F)F)ccc2NC(=O)C2=C(O)[C@@]3(C)CCCN3N(Cc3ccc(C#CCOCCO)c(F)c3F)C2=O)c1OC [Example 137] | 92%
C[C@]12CCCN1N(Cc1ccccc1Cl)C(=O)C(C(=O)Nc1ccc(C(F)(F)F)cc1-c1ccc(C(F)(F)F)nc1)=C2O [Example 168] | 72%
CN1N(Cc2ccc(OCCN3CCOCC3)c(F)c2F)C(=O)C(C(=O)Nc2ccc(C(F)(F)F)cc2-c2cc(C(F)(F)F)ncn2)=C(O)C12CCCCC2 [Example 295] | 21%
C[C@]12CCCN1N(Cc1cccc(OC(F)F)c1)C(=O)C(C(=O)Nc1ccc(C(F)(F)F)cc1-c1ccc(C(F)(F)F)nc1)=C2O [Example 167] | 73%
COCCN1CCN(CCOc2ccc(CN3C(=O)C(C(=O)Nc4ccc(C(F)(F)F)cc4-c4cc(C(F)(F)F)ncn4)=C(O)C4(CCCC4)N3C)c(F)c2F)CC1 [Example 377] | 29%
C[C@]12CCCN1N(Cc1cccc(F)c1F)C(=O)C(C(=O)Nc1ccc(Br)cc1)=C2O [Example 77] | 80%
(4aR)-1-[(2,3-Difluorophenyl)methyl]-4-hydroxy-4a-methyl-N-[5-methyl-2-(trifluoromethyl)furan-3-yl]-2-oxo-6,7-dihydro-5H-pyrrolo[1,2-b]pyridazine-3-carboxamide [Example 7] | 69%

— patent EP3928779A1 (Chugai Seiyaku Kabushiki Kaisha, priority 2014, dated 2016)
